# Data published in patent US7951232B2, “Surface coating compositions and methods” (Elevance Renewable Sciences, Inc., priority 2006, dated 2011).
# Assays:
# [1] = test system: Candida albicans, ATCC 10231; test: Time-Kill Procedure (ASTM), rate of kill; assay type: cell-based
# Method: (§1) The rate of kill for these organisms upon exposure to 9-decenoic acid was determined using the American Society for Testing and Materials (ASTM) procedure entitled “Standard Test Method for the Assessment of Microbiocidal Activity of Test Materials Using a Time-Kill Procedure”, October 1998. This procedure incorporates the recommendations described in the “Manual of Clinical Microbiology,”5th ed., edited by A. B. Balows et al., ASM, Washington, and is directed by the Federal Register, June 1994.
# (§2) Stock cultures were transferred into TSB and incubated for 18-24 hours at 37±2° C. A second transfer was made onto TSA plates and were incubated for 18-24 hours at 37±2° C. The plates were removed from incubation and the bacterial growth washed from the agar surface using Butterfield's Phosphate Buffered Dilution Water (PBDW). The bacterial suspension was adjusted to contain approximately 10^8 Colony Forming Units (CFU)/ml with PBDW using spectrophometric methods extant in the laboratory.
# (§3) The concentrated 9-decenoic acid was diluted 1:40 in filter sterilized isopropanol to yield a 2.5% stock solution. Subsequent dilutions to the 9-decenoic acid stock solutions were made with sterile Deionized Water (DI) to achieve concentrations of 0.1%, 0.05%, 0.01%, and 0.001%. The pH was determined for each dilution; pH values ranged from 4.4-4.1. Additionally, the 9-decenoic acid stock solution was adjusted to pH 7 with 1 N NaOH and serially diluted with sterile DI to achieve concentrations of 1.0%, 0.75% and 0.5%.
# (§4) Compliant with the ASTM procedure cited, for each challenge microorganism a 9.9 ml aliquot of the prepared 9-decenoic acid suspension was added to a sterile tube. A 0.1 ml aliquot of the standardized inoculum was added to the 9-decenoic acid solution representing the start of the test exposure. The inoculated 9-decenoic acid solution was immediately mixed thoroughly. The inoculated suspension was held at room temperature for 0.5, 2, 5, 7 and 10 minute exposure times for tests run at ˜pH 4. The pH 7 tests were held at room temperature for 0.5 and 2 minutes.
# (§5) At each exposure sample time, a 1.0 ml aliquot of the inoculated 9-decenoic acid suspension was transferred to 9.0 ml of D/E Neutralizing Broth. Additional ten-fold serial dilutions were made in PBDW and plated in duplicate on TSA. All plates were incubated for 48 hours at 37±2° C. and visually examined for growth. The plates are enumerated, recorded and log kill determined for each time point.
# (§6) The following study controls were conducted: culture purity, neutralizer sterility, initial suspension population, test population, neutralization verification and a negative control using isopropanol. Culture purity was verified by performing a streak plate for isolated colonies on the each culture used. All cultures were determined to be pure based on consistent colony morphology typical for the test organism. The neutralizer sterility was confirmed by no growth in an incubated sample.
# (§7) The population of the initial and test culture were determined by serial dilution, plating and enumerating after incubation. The initial suspension were determined to be ≧10^4 CFU/ml. The test culture population was used for calculation of the log reduction achieved at each time point.
# (§8) Neutralization effectiveness was verified by a filtration test. For each organism, four tubes were prepared with 9 ml D/E Neutralizing Broth and fewer than 100 CFU/ml of the organism. A 1.0 ml aliquot of prepared 9-decenoic acid was added to each tube. Immediately, the entire contents of 2 tubes were filtered through a filtration apparatus and rinsed with sterile diluent. The remaining 2 tubes were held at room temperature for 30 minutes and then the entire contents were filtered using the same procedure. The filters were aseptically transferred to TSA plates and incubated for 48 hours at 37±2° C. and visually examined for growth.
# (§9) This control was inoculated, subcultured and incubated as in the test procedure.
# [2] = test system: Escherichia coli 0157:H7, ATCC 43895; test: Time-Kill Procedure (ASTM), rate of kill; assay type: cell-based
# Method: as §1, §2, §3, §4, §5, §6, §7, §8, §9
# [3] = 0.01%, pH 4.4, exposure 0.5 minutes
# [4] = 0.01%, pH 4.4, exposure 2 minutes
# [5] = 0.01%, pH 4.4, exposure 5 minutes
# [6] = 0.01%, pH 4.4, exposure 7 minutes
# [7] = 0.01%, pH 4.4, exposure 10 minutes
# [8] = 0.05%, pH 4.1, exposure 0.5 minutes
# [9] = 0.05%, pH 4.1, exposure 2 minutes
# [10] = 0.05%, pH 4.1, exposure 5 minutes
# [11] = 0.05%, pH 4.1, exposure 7 minutes
# [12] = 0.05%, pH 4.1, exposure 10 minutes
# [13] = 0.1%, pH 4.1, exposure 0.5 minutes
# [14] = 0.1%, pH 4.1, exposure 2 minutes
# [15] = 0.1%, pH 4.1, exposure 5 minutes
# [16] = 0.1%, pH 4.1, exposure 7 minutes
# [17] = 0.1%, pH 4.1, exposure 10 minutes
smiles,measurement,setting,value
C=CCCCCCCCC(=O)O [9-decenoic acid],Log reduction of organisms after exposure,[1]; [3],1.0 log
same,Log reduction of organisms after exposure,[1]; [4],2.9 log
same,Log reduction of organisms after exposure,[1]; [5],>6.7 log
same,Log reduction of organisms after exposure,[1]; [6],>6.7 log
same,Log reduction of organisms after exposure,[1]; [7],>6.7 log
same,Log reduction of organisms after exposure,[1]; [8],>6.7 log
same,Log reduction of organisms after exposure,[1]; [9],>6.7 log
same,Log reduction of organisms after exposure,[1]; [10],>6.7 log
same,Log reduction of organisms after exposure,[1]; [11],>6.7 log
same,Log reduction of organisms after exposure,[1]; [12],>6.7 log
same,Log reduction of organisms after exposure,[1]; [13],>6.7 log
same,Log reduction of organisms after exposure,[1]; [14],>6.7 log
same,Log reduction of organisms after exposure,[1]; [15],>6.7 log
same,Log reduction of organisms after exposure,[1]; [16],>6.7 log
same,Log reduction of organisms after exposure,[1]; [17],>6.7 log
same,Log reduction of organisms after exposure,[2]; [3],1.3 log
same,Log reduction of organisms after exposure,[2]; [4],1.6 log
same,Log reduction of organisms after exposure,[2]; [5],2.2 log
same,Log reduction of organisms after exposure,[2]; [6],1.8 log
same,Log reduction of organisms after exposure,[2]; [7],2.7 log
same,Log reduction of organisms after exposure,[2]; [8],>6.2 log
same,Log reduction of organisms after exposure,[2]; [9],>6.2 log
same,Log reduction of organisms after exposure,[2]; [10],>6.2 log
same,Log reduction of organisms after exposure,[2]; [11],>6.2 log
same,Log reduction of organisms after exposure,[2]; [12],>6.2 log
same,Log reduction of organisms after exposure,[2]; [13],>6.2 log
same,Log reduction of organisms after exposure,[2]; [14],>6.2 log
same,Log reduction of organisms after exposure,[2]; [15],>6.2 log
same,Log reduction of organisms after exposure,[2]; [16],>6.2 log
same,Log reduction of organisms after exposure,[2]; [17],>6.2 log
